Test system: HSV-1 (KOS strain)
Assay: Plaque Reduction Assay (PRA) for anti-viral activity, HSV-1
Format: cell-based, herpes simplex virus type 1 (KOS strain)
Settings: product of reduction of Aloe emodin
Experimental: The extract has a direct virucidal effect on HSV under the standardly accepted assay conditions employed. This effect is demonstrable by mixing the test extract directly with HSV and incubating the mixture for 15 minutes at 37° C., then diluting the mixture and assaying for the amount of viable HSV capable of producing plaques in an in vitro cell culture system. A plaque is defined as a visible, localized destruction of cells in culture produced by a single infectious virus particle or plaque forming unit and is the most sensitive assay in virology for quantitating viruses. Depending on the type and concentration of the test extract used, complete inactivation of HSV plaque forming units can be achieved in 15 minutes or less.
Material for testing was obtained from Aloe plants using either whole leaf homogenates, sap or gel. Other materials for testing included dried leaves of Aloe vera and Senna, dried bark of Frangula and Cascara, dried rhizomes of Rhubarb and a commercial preparation of Aloin. All samples were tested for anti-viral activity by a Plaque Reduction Assay (PRA) using monolayer cultures of Vero (African Green Monkey Kidney) cells grown in MEM+5% calf serum. […] After adsorption, the inoculum was removed, a methyl cellulose/MEM overlay medium was added and after three days incubation the number of plaques per dish counted and averaged. […]

## O=C1c2ccccc2Cc2ccccc21 [anthrone]
  anti-viral activity (in words): loss of anti-viral activity

Reference: patent publication US4670265A, “Aloe emodin and other anthraquinones and anthraquinone-like compounds from plants virucidal against herpes simplex viruses” (priority 1984, dated 1987)
